Results: patent US20250195521A1 (Revolution Medicines, Inc., priority 2020, published 2025)
Like-named read-outs stand apart in the source and are kept apart here.

Key:
[1] = tested on: NCI-H358 cells (K-Ras G12C); assay: CellTiter-Glo cell viability, NCI-H358; type: cell-based, human; conditions: Homo sapiens, NCI-H358, 120 h, read-out: H358 Cell Viability IC50
Procedure, shortened: (§1)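 Endpoint: CellTiter-Glo luminescence on day 5, following ~30 min at room temperature. Data as (sample/mean DMSO)×100, four-parameter logistic fit.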

[2] = tested on: Capan-1 cells (K-Ras G12V); assay: CellTiter-Glo cell viability, Capan-1; type: cell-based, human; conditions: Homo sapiens, CAPAN-1, 120 h, read-out: Capan-1 Cell Viability IC50
Procedure, shortened: as §1

KRAS G12C = KRAS G12C (Homo sapiens (Human), UniProt P01116+P62937, G12C); assay: Ras-Raf disruption/FRET/MOA assay (BRAF RBD, Cyclophilin A); type: biochemical; conditions: read-out: KRAS G12C FRET IC50
Chain of KRAS G12C (P01116-2 other isoform, or with tags, fused parts or gaps G12C): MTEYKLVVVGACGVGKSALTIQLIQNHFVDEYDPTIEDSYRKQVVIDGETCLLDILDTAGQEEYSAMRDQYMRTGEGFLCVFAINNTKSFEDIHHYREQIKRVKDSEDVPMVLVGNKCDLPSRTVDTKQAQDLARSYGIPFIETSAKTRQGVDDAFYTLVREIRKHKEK
Chain of KRAS G12C (P62937 whole entry): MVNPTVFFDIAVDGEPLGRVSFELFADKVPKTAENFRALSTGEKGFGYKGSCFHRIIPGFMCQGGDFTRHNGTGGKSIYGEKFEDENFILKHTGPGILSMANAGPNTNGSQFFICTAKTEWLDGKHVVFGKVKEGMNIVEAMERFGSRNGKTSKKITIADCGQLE
Procedure, shortened: (§2)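 Measured: compound-facilitated Cyclophilin A:Ras complex blocking RAF RBD binding. Conditions: 12.5 nM Ras-GMPPNP, 50 nM BRAF RBD, 25 μM CypA, 3 h plus 1.5 h detection. Output: IC50 from TR-FRET ratio.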

KRAS G12D = KRAS G12D (Homo sapiens (Human), UniProt P01116+P62937, G12D); assay: as above; type: biochemical; conditions: read-out: KRAS G12D FRET IC50
Chain of KRAS G12D (P01116 other isoform, or with tags, fused parts or gaps G12D): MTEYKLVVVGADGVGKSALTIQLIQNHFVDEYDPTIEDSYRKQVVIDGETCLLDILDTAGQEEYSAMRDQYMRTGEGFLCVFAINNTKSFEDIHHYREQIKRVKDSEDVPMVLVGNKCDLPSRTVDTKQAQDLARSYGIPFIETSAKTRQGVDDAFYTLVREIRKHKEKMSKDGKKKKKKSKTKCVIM
Chain of KRAS G12D (P62937 whole entry): as the sequence (P62937 whole entry) above
Procedure, shortened: as §2

KRAS G12S = KRAS G12S (Homo sapiens (Human), UniProt P01116+P62937, G12S); assay: as above; type: biochemical; conditions: read-out: KRAS G12S FRET IC50
Chain of KRAS G12S (P01116 other isoform, or with tags, fused parts or gaps G12S): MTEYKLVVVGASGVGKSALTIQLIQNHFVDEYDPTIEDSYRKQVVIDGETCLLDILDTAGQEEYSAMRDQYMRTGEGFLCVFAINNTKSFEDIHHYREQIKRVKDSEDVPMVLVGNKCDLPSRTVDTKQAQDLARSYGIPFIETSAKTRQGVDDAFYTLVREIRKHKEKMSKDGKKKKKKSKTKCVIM
Chain of KRAS G12S (P62937 whole entry): as the sequence (P62937 whole entry) above
Procedure, shortened: as §2

KRAS G12V = KRAS G12V (Homo sapiens (Human), UniProt P01116+P62937, G12V); assay: as above; type: biochemical; conditions: read-out: KRAS G12V FRET IC50
Chain of KRAS G12V (P01116 other isoform, or with tags, fused parts or gaps G12V): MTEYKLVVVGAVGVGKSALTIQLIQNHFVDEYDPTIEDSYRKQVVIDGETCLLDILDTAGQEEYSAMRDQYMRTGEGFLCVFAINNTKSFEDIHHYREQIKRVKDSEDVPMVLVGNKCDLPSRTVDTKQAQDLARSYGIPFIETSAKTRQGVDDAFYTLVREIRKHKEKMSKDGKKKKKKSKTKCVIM
Chain of KRAS G12V (P62937 whole entry): as the sequence (P62937 whole entry) above
Procedure, shortened: as §2

KRAS G13C = KRAS G13C (Homo sapiens (Human), UniProt P01116+P62937, G13C); assay: as above; type: biochemical; conditions: read-out: KRAS G13C FRET IC50
Chain of KRAS G13C (P01116 other isoform, or with tags, fused parts or gaps G13C): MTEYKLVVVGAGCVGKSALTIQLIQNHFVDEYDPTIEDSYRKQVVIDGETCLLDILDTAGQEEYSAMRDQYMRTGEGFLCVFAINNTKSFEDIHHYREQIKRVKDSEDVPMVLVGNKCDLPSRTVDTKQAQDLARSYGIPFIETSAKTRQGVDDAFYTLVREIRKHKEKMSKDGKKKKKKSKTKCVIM
Chain of KRAS G13C (P62937 whole entry): as the sequence (P62937 whole entry) above
Procedure, shortened: as §2

KRAS G13D = KRAS G13D (Homo sapiens (Human), UniProt P01116+P62937, G13D); assay: as above; type: biochemical; conditions: read-out: KRAS G13D FRET data IC50
Chain of KRAS G13D (P01116 other isoform, or with tags, fused parts or gaps G13D): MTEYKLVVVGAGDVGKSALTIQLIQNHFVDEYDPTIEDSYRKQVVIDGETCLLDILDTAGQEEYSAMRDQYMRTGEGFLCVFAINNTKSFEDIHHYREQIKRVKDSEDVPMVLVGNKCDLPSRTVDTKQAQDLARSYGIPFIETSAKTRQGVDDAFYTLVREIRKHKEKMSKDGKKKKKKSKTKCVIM
Chain of KRAS G13D (P62937 whole entry): as the sequence (P62937 whole entry) above
Procedure, shortened: as §2

KRAS WT = KRAS WT (Homo sapiens (Human), UniProt P01116+P62937); assay: as above; type: biochemical; conditions: read-out: KRAS WT FRET data IC50
Chain of KRAS WT (P01116 other isoform, or with tags, fused parts or gaps): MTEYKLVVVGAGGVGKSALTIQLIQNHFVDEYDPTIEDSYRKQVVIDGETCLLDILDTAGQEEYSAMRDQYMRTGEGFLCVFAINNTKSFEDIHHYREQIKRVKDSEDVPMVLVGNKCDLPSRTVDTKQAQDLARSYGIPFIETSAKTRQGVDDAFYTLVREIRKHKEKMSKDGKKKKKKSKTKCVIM
Chain of KRAS WT (P62937 whole entry): as the sequence (P62937 whole entry) above
Procedure, shortened: as §2

NRAS G12C = NRAS G12C (Homo sapiens (Human), UniProt P01111+P62937, G12C); assay: as above; type: biochemical; conditions: read-out: NRAS G12C FRET data IC50
Chain of NRAS G12C (P01111 whole entry G12C): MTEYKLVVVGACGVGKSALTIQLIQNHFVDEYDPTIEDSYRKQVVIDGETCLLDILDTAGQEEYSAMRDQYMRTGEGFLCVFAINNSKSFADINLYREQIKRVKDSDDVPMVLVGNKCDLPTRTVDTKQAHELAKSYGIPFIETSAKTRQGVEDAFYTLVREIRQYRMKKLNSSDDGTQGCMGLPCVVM
Chain of NRAS G12C (P62937 whole entry): as the sequence (P62937 whole entry) above
Procedure, shortened: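 Ras-GMPPNP (12.5 nM), BRAF RBD (50 nM) and 25 μM Cyclophilin A were incubated with compound for 3 h at 25° C, then detected 1.5 h with anti-His Eu and anti-GST APC; IC50 values follow from the reduced TR-FRET ratio.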

[3] = tested on: K-Ras G12C (NCI-H358 cells); assay: Potency assay: pERK in NCI-H358 cells; type: cell-based, human; conditions: Homo sapiens, read-out: pERK EC50 (H358 KRAS G12C)
Procedure, shortened: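 Cells plated the day before were exposed for 4 h at 37° C, 5% CO2 to a 10-point, 3-fold DMSO dilution series (10 mM top stock), in duplicate. Phospho-ERK was read by AlphaLISA SureFire Ultra or by In-Cell Western with DRAQ5 DNA stain, and IC50 came from a 4-parameter sigmoidal fit.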

Row | Compound | IC50 ([1]; K-Ras G12C, 5-day treatment) | IC50 ([2]; K-Ras G12V, 5-day treatment) | IC50 (KRAS G12C) | IC50 (KRAS G12D) | IC50 (KRAS G12S) | IC50 (KRAS G12V) | IC50 (KRAS G13C) | IC50 (KRAS G13D) | IC50 (KRAS WT) | IC50 (NRAS G12C) | EC50 ([3]; NCI-H358 cells, 4 hours) | IC50 [1] | IC50 [2] | EC50 ([3]; NCI-H358, 4 h)
1 | CCn1c(-c2cccnc2COC)c2c3cc(ccc31)-c1cc(O)cc(c1)C[C@H](NC(=O)[C@H](C(C)C)N(C)C(=O)OC1COC1)C(=O)N1CCC[C@H](N1)C(=O)OCC(C)(C)C2 [Compound A39] | 100 to 1000 nM | 100 to 1000 nM | 100 to 1000 nM | 1000 to 10000 nM | 100 to 1000 nM | 100 to 1000 nM | 100 to 1000 nM | 100 to 1000 nM | 100 to 1000 nM | 100 to 1000 nM | < 5000 nM |  |  | 
2 | CCn1c(-c2cnccc2COC)c2c3cc(ccc31)-c1cc(O)cc(c1)C[C@H](NC(=O)[C@H](C(C)C)N1CCCC1=O)C(=O)N1CCC[C@H](N1)C(=O)OCC(C)(C)C2 [Compound A40] | 1000 to 10000 nM | 1000 to 10000 nM | 100 to 1000 nM | 1000 to 10000 nM | 100 to 1000 nM | 100 to 1000 nM | 100 to 1000 nM | 100 to 1000 nM | 100 to 1000 nM | 100 to 1000 nM | < 5000 nM |  |  | 
3 | CCn1c(-c2cnccc2COC)c2c3cc(ccc31)-c1cc(O)cc(c1)C[C@H](NC(=O)[C@H](C(C)C)N(C)C(=O)[C@H]1CCCN1C)C(=O)N1CCC[C@H](N1)C(=O)OCC(C)(C)C2 [Compound A83] | 1000 to 10000 nM | 1000 to 10000 nM | 100 to 1000 nM | 100 to 1000 nM | 100 to 1000 nM | 100 to 1000 nM | 100 to 1000 nM | 100 to 1000 nM | 100 to 1000 nM | 100 to 1000 nM | < 5000 nM |  |  | 
4 | CCn1c(-c2cccnc2[C@H](C)OC)c2c3cc(ccc31)-c1cc(O)cc(c1)C[C@H](NC(=O)[C@H](C(C)C)N(C)C(=O)O[C@H]1CCN(C)C1)C(=O)N1CCC[C@H](N1)C(=O)OCC(C)(C)C2 [Compound A169] | 100 to 1000 nM | 100 to 1000 nM | 100 to 1000 nM | 100 to 1000 nM | 100 to 1000 nM | 1000 to 10000 nM | 10 to 100 nM | 10 to 100 nM | 100 to 1000 nM | 100 to 1000 nM | < 5000 nM |  |  | 
5 | CCn1c(-c2cccnc2[C@H](C)OC)c2c3cc(ccc31)-c1cc(O)cc(c1)C[C@H](NC(=O)[C@H](C(C)C)N(C)C(=O)[C@H]1CCN(C(=O)OC3CC3)C1)C(=O)N1CCC[C@H](N1)C(=O)OCC(C)(C)C2 [Compound A202] | 10 to 100 nM | 10 to 100 nM | 10 to 100 nM | 100 to 1000 nM | 10 to 100 nM | 10 to 100 nM | 10 to 100 nM | 10 to 100 nM | 10 to 100 nM | 10 to 100 nM | < 5000 nM |  |  | 
6 | CCn1c(-c2cccnc2[C@H](C)OC)c2c3cc(ccc31)-c1cc(O)cc(c1)C[C@H](NC(=O)[C@H](C(C)C)N(C)C(=O)C1CCc3ncccc3C1)C(=O)N1CCC[C@H](N1)C(=O)OCC(C)(C)C2 (some centres unmarked) [Compound A247] | 10 to 100 nM | 10 to 100 nM | 10 to 100 nM | 10 to 100 nM | 10 to 100 nM | 10 to 100 nM | 10 to 100 nM | 10 to 100 nM | 10 to 100 nM | 10 to 100 nM | < 5000 nM |  |  | 
7 | CCn1c(-c2cccnc2[C@H](C)OC)c2c3cc(ccc31)-c1csc(n1)C[C@H](NC(=O)[C@H](C(C)C)N(C)C(=O)N1CC3CC(C1)O3)C(=O)N1CCC[C@H](N1)C(=O)OCC(C)(C)C2 [Compound A301] |  |  | 100 to 1000 nM | 1000 to 10000 nM | 100 to 1000 nM | 100 to 1000 nM | 1000 to 10000 nM | 1000 to 10000 nM | 100 to 1000 nM | 100 to 1000 nM |  | 10 to 100 nM | 100 to 1000 nM | < 5000 nM
8 | CCn1c(-c2cccnc2[C@H](C)OC)c2c3cc(ccc31)-c1csc(n1)C[C@H](NC(=O)[C@H](C(C)C)N(C)S(=O)(=O)N1CC(OC)C1)C(=O)N1CCC[C@H](N1)C(=O)OCC(C)(C)C2 [Compound A322] | 100 to 1000 nM | 100 to 1000 nM | 100 to 1000 nM | 1000 to 10000 nM | 1000 to 10000 nM | 100 to 1000 nM | 100 to 1000 nM | 1000 to 10000 nM | 100 to 1000 nM | 100 to 1000 nM | < 5000 nM |  |  | 
9 | CCn1c(-c2cccnc2[C@H](C)OC)c2c3cc(ccc31)-c1csc(n1)C[C@H](NC(=O)[C@H](C(C)C)N(C)C(=O)N1CC(OC(F)(F)F)C1)C(=O)N1CCC[C@H](N1)C(=O)OCC(C)(C)C2 [Compound A330] | 10 to 100 nM | 10 to 100 nM | 10 to 100 nM | 1000 to 10000 nM | 100 to 1000 nM | 100 to 1000 nM | 100 to 1000 nM | 100 to 1000 nM | 100 to 1000 nM | 10 to 100 nM | < 5000 nM |  |  | 
10 | CCN(C)C(=O)N(C)[C@H](C(=O)N[C@H]1Cc2nc(cs2)-c2ccc3c(c2)c(c(-c2cccnc2[C@H](C)OC)n3CC)CC(C)(C)COC(=O)[C@@H]2CCCN(N2)C1=O)C(C)C [Compound A336] | 10 to 100 nM | 10 to 100 nM | 10 to 100 nM | 100 to 1000 nM | 100 to 1000 nM | 100 to 1000 nM | 100 to 1000 nM | 100 to 1000 nM | 10 to 100 nM | 10 to 100 nM | < 5000 nM |  |  | 
11 | CCn1c(-c2cccnc2[C@H](C)OC)c2c3cc(ccc31)-c1cc(O)cc(c1)C[C@H](NC(=O)[C@H](C(C)C)N(C)C(=O)[C@@H]1CCN(C(=O)[C@]3(C)CCCN3C)C1)C(=O)N1CCC[C@H](N1)C(=O)OCC(C)(C)C2 [Compound A342] | 10 to 100 nM | 100 to 1000 nM | 10 to 100 nM | 10 to 100 nM | 10 to 100 nM | 10 to 100 nM | 10 to 100 nM | 10 to 100 nM | 10 to 100 nM | 10 to 100 nM | < 5000 nM |  |  | 
12 | CCn1c(-c2cccnc2[C@H](C)OC)c2c3cc(ccc31)-c1csc(n1)C[C@H](NC(=O)[C@H](C(C)C)N(C)C(=O)N1CC(N)C1)C(=O)N1CCC[C@H](N1)C(=O)OCC(C)(C)C2 [Compound A343] | 100 to 1000 nM | 100 to 1000 nM | 10 to 100 nM | 100 to 1000 nM | 100 to 1000 nM | 100 to 1000 nM | 100 to 1000 nM | 100 to 1000 nM | 100 to 1000 nM | 10 to 100 nM | < 5000 nM |  |  | 
13 | CCn1c(-c2cccnc2[C@H](C)OC)c2c3cc(ccc31)-c1cc(O)cc(c1)C[C@H](NC(=O)[C@H](C(C)C)N(C)C(=O)[C@H]1CCN(C(=O)OC3CN(C)C3)C1)C(=O)N1CCC[C@H](N1)C(=O)OCC(C)(C)C2 [Compound A348] | 10 to 100 nM | 100 to 1000 nM | 10 to 100 nM | 10 to 100 nM | 10 to 100 nM | 10 to 100 nM | 10 to 100 nM | 10 to 100 nM | 10 to 100 nM | 10 to 100 nM | < 5000 nM |  |  | 
14 | CCn1c(-c2cccnc2[C@H](C)OC)c2c3cc(ccc31)-c1cc(O)cc(c1)C[C@H](NC(=O)[C@H](C(C)C)N(C)C(=O)[C@H]1CCN(C(=O)[C@@]3(C)CCCN3C)C1)C(=O)N1CCC[C@H](N1)C(=O)OCC(C)(C)C2 [Compound A379] | 10 to 100 nM | 100 to 1000 nM | 10 to 100 nM | 10 to 100 nM | 10 to 100 nM | 10 to 100 nM | 10 to 100 nM | 10 to 100 nM | 10 to 100 nM | 10 to 100 nM | < 5000 nM |  |  | 
15 | CCn1c(-c2cccnc2[C@H](C)OC)c2c3cc(ccc31)-c1cc(O)cc(c1)C[C@H](NC(=O)[C@H](C(C)C)N(C)C(=O)C13CCC(CO1)C3)C(=O)N1CCC[C@H](N1)C(=O)OCC(C)(C)C2 [Compound A410] | 100 to 1000 nM | 100 to 1000 nM | 10 to 100 nM | 100 to 1000 nM | 100 to 1000 nM | 100 to 1000 nM | 10 to 100 nM | 100 to 1000 nM | 10 to 100 nM | 100 to 1000 nM |  |  |  | 
